A value given as a limit tells only on which side of the number the result lay.

The test system of test [1] is TGF-β-stimulated SMAD3 phosphorylation in BEAS-2B cells. The test is described as follows: Cellular ALK5 potency assay, inhibition of TGF-β stimulated pSMAD3 formation in BEAS-2B cells. Type of test: cell-based. The following applies: Homo sapiens, inhibition of TGF-β (10 ng/mL) stimulated pSMAD3 formation, 1 hour compound incubation, read-out: BEAS2B pIC50 (converted). As for the experimental part: Example 255: Cellular ALK5 Potency Assay to Measure pIC50, Inhibition of TGF-β Stimulated pSMAD3 Formation in BEAS-2B Cells
The potency of compounds of the present disclosure for inhibition of TGF-β-stimulated SMAD3 phosphorylation was measured in BEAS-2B cells, a human lung epithelial cell line. TGF-β signals through activin receptor-like kinase 5 (ALK5) immediately prior to SMAD3 phosphorylation.
BEAS-2B cells were grown using 50% DMEM (Life Technologies) and 50% F-12 (Life Technologies) media, supplemented with 10% Fetal Bovine Serum (ATCC), 25 mM HEPES (Life Technologies), and 1×Pen-Strep (Life Technologies). Cells were cultured in a humidified incubator set at 37° C., 5% CO2, and trypsonized using 0.25% Trypsin with 0.5% polyvinylpyrrolidone (PVP).
For the assay, BEAS-2B cells were seeded at 7,500 cells/well (25 μL/well) in a 384-well plate and cultured overnight. Before dosing, growth media was aspirated and the wells were rinsed with HBSS Buffer (HBSS with Calcium and Magnesium, Life Technologies) supplemented with 25 mM HEPES (Life Technologies) and 1% Bovine Serum Albumin (Roche). Compounds were serially diluted in DMSO, then further diluted with supplemented HBSS Buffer (50 μL/well) to create a compound plate 3× of the final assay concentration, at 0.3% DMSO. The diluted compounds were then added to the cells (8 μL/well) and incubated at 37° C., 5% CO2 for 1 hour. After the compound incubation, TGF-β (R&D Systems) reconstituted in supplemented HBSS Buffer was added to the cells ([…], final concentration 10 ng/mL) and incubated for a further 30 minutes, after which the cells were immediately lysed with AlphaLISA lysis buffer (PerkinElmer). AlphaLISA Acceptor and Detector beads (PerkinElmer) were added 2 hours apart, then incubated overnight to be read the next day. The potency of the compound was determined through analysis of dose-dependent quantified changes in pSMAD3 signal from baseline (non-compound treated TGF-β stimulated cells). Data are expressed as pIC50 (negative decadic logarithm IC50) values.

The target of test [2] is T1, recombinant human ALK5 (TGF-βR1) protein (Homo sapiens, UniProt P36897).
T1 construct: purchased Life Technologies PR9075A
T1 sequence (P36897 34-503): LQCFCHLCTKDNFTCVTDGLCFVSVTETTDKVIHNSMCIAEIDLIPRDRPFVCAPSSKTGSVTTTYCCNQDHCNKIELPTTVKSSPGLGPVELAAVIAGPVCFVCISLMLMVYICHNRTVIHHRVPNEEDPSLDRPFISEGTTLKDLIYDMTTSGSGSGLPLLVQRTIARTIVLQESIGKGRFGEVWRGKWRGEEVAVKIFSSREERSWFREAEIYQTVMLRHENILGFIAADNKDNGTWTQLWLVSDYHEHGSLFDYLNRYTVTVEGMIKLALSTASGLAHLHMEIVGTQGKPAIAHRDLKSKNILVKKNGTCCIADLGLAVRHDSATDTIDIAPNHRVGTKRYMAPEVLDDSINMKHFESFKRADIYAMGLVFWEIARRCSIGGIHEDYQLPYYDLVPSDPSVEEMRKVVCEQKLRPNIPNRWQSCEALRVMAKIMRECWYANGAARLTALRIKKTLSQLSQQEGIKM
The test is described as follows: Biochemical ALK5 (TGF-βR1) assay to measure pKi (LANCE Ultra ULight kinase assay). The following applies: apparent pKi, converted from pIC50 using the Cheng-Prusoff equation. As for the experimental part:
Example 254: Biochemical ALK5 (TGF-βR1) Assay to Measure pKi
The assays were performed in a 384-well plate (24 columns×16 wells/rows). An Echo® 550 Liquid Handler (Labcyte) was used to prepare various intermediate concentrations of compounds of the present disclosure in 100% DMSO. From the intermediate concentrations, a range of concentrations (from 10 μM to 25 pM corresponding to volumes up to 105 nL) were prepared and ejected into a final assay plate to be used to create individual dose response curves for each of the subject compounds. To a separate column within the assay plate, 105 nL of DMSO in each well was used to establish a maximum assay signal. Additionally, 105 nL of 100 μM SD-208, a selective TGF-βR1 inhibitor (Catalog #S7624, Selleck Chemicals), was used in another column of wells to establish a minimal assay signal.
With a multidrop dispenser, 8 μL of enzyme mixture (1.25× final) was added to each well. The enzyme mixture consisted of 250 pM ALK5 enzyme and 62.5 nM peptide substrate (LANCE® (lanthanide chelate excite) Ultra ULight™-DNA Topoisomerase 2-alpha (Thr1342)) prepared in assay buffer (50 mM HEPES, 10 mM MgCl2, 1 mM EGTA, 0.01% Tween-20, pH 7.5 at room temperature) with 2 mM DTT added prior to use. The plate was then sealed with an adhesive seal and allowed to equilibrate for 60 minutes at room temperature.
Next, 2 μL of 125 μM ATP (5× final, 125 μM ATP prepared in assay buffer with 2 mM DTT) was added to the incubated mixtures, covered with a MicroClime® Environmental Lid (Product No. LLS-0310, Labcyte) and immediately transferred to 37° C. The reactions were allowed to proceed at 37° C. for 60 minutes before terminating with the addition of 10 μL of detection antibody (LANCE® (lanthanide chelate excite) Ultra Europium-anti-phospo-DNA Topoisomerase 2-alpha (Thr1342)) in detection mixture (12 mM EDTA, 4 nM detection antibody prepared in detection buffer (50 mM Tris-HCl, 150 mM NaCl, 0.5% BSA (Fraction V), pH 7.0)) at room temperature. The plate was then read on a Perkin Elmer EnVision Plate Reader using europium specific reader settings with excitation and emission wavelengths set to 320 or 340 nm and 665 nm, respectively.
For dose-response analyses, percent inhibition versus compound concentrations were plotted, and pIC50 values were determined from a 4-parameter robust fit model with GraphPad Prism V5 Software (GraphPad Software, Inc., La Jolla, Calif.). This model obtains pIC50 values by fitting the sigmodial dose-response (variable slope) equation to the data. Results were expressed as pIC50 (negative logarithm of IC50) and subsequently converted to pKi (negative logarithm of dissociate constant, K) using the Cheng-Prusoff equation.
The higher the value of pKi (lower value of Ki), the greater the inhibition of ALK5 activity.
On the technique in general: Time-resolved FRET reads energy transfer from a long-lived donor to a nearby acceptor.

As to `CN(C)C1CCN(c2cnc3ccc(-c4c[nH]nc4-c4cc(Cl)ccc4F)nc3c2)C1` (racemic) [Compound 1-34, rac-(3S)-1-[6-[3-(5-chloro-2-fluoro-phenyl)-1H-pyrazol-4-yl]-1,5-naphthyridin-3-yl]-N,N-dimethyl-pyrrolidin-3-amine], the IC50 in test [1] is 25.1 to 158 nM. For the same molecule, in test [2], the Ki was at most 0.0316 nM.

In the case of `Fc1ccc(Cl)cc1-c1n[nH]cc1-c1ccc2ncc(N3CCC(N4CCCCC4)C3)cc2n1` (racemic) [Compound 1-39, 2-[3-(5-chloro-2-fluoro-phenyl)-1H-pyrazol-4-yl]-7-[rac-(3R)-3-(1-piperidyl)pyrrolidin-1-yl]-1,5-naphthyridine], the IC50 in test [1] was at most 20 nM. The Ki in test [2] is 0.0398 to 0.316 nM. For the molecule `CN1C[C@H]2C[C@@H]1CN2c1cnc2ccc(-c3c[nH]nc3-c3cc(Cl)ccc3F)nc2c1` (racemic) [Compound 1-42, 2-[3-(5-chloro-2-fluoro-phenyl)-1H-pyrazol-4-yl]-7-[rac-(1R,4R)-5-methyl-2,5-diazabicyclo[2.2.1]heptan-2-yl]-1,5-naphthyridine], the IC50 in test [1] was 25.1 to 158 nM. Further, in test [2], the Ki was 3.98 to 31.6 nM. With `NC(=O)C1CN(c2cnc3ccc(-c4c[nH]nc4-c4cc(Cl)ccc4F)nc3c2)CCN1` (racemic) [Compound 1-50, rac-(2S)-4-[6-[3-(5-chloro-2-fluoro-phenyl)-1H-pyrazol-4-yl]-1,5-naphthyridin-3-yl]piperazine-2-carboxamide], the IC50 in test [1] was 25.1 to 158 nM. Moreover, the Ki in test [2] is 0.398 to 3.16 nM. In the case of `CNC(=O)C1CN(c2cnc3ccc(-c4c[nH]nc4-c4cc(Cl)ccc4F)nc3c2)CCN1` (racemic) [Compound 1-51, rac-(2R)-4-[6-[3-(5-chloro-2-fluoro-phenyl)-1H-pyrazol-4-yl]-1,5-naphthyridin-3-yl]-N-methyl-piperazine-2-carboxamide], the IC50 in test [1] was 25.1 to 158 nM. For the same molecule, in test [2], the Ki was 0.0398 to 0.316 nM. On the same counts, the results for `C[C@@H]1CN(c2cnc3ccc(-c4c[nH]nc4-c4cc(Cl)ccc4F)nc3c2)[C@H](C)CN1C` (racemic) [Compound 1-75, 2-[3-(5-chloro-2-fluoro-phenyl)-1H-pyrazol-4-yl]-7-[rac-(2R,5R)-2,4,5-trimethylpiperazin-1-yl]-1,5-naphthyridine] are 25.1 to 158 nM and 3.98 to 31.6 nM. The corresponding values for `CNC(=O)C1CN(c2cnc3ccc(-c4c[nH]nc4-c4cc(Cl)ccc4F)nc3c2)CCN1C` (racemic) [Compound 1-77, rac-(2R)-4-[6-[3-(5-chloro-2-fluoro-phenyl)-1H-pyrazol-4-yl]-1,5-naphthyridin-3-yl]-N,1-dimethyl-piperazine-2-carboxamide] are 25.1 to 158 nM and 0.0398 to 0.316 nM. The corresponding values for `CNC(=O)C1CN(c2cnc3ccc(-c4c[nH]nc4-c4cc(Cl)ccc4F)nc3c2)CCN1C(C)C` (racemic) [Compound 1-78, rac-(2R)-4-[6-[3-(5-chloro-2-fluoro-phenyl)-1H-pyrazol-4-yl]-1,5-naphthyridin-3-yl]-1-isopropyl-N-methyl-piperazine-2-carboxamide] are 25.1 to 158 nM and 0.0398 to 0.316 nM. Take `CN1CCC(N(C)c2cnc3ccc(-c4c[nH]nc4-c4cc(Cl)ccc4F)nc3c2)C1` (racemic) [Compound 1-79, 6-[3-(5-chloro-2-fluoro-phenyl)-1H-pyrazol-4-yl]-N-methyl-N-[rac-(3R)-1-methylpyrrolidin-3-yl]-1,5-naphthyridin-3-amine]: in test [1], the IC50 is at most 20 nM. Further, in test [2], the Ki is 0.0398 to 0.316 nM. The corresponding values for `COCC1CN(c2cnc3ccc(-c4c[nH]nc4-c4cc(Cl)ccc4F)nc3c2)CCN1C` (racemic) [Compound 1-80, 2-[3-(5-chloro-2-fluoro-phenyl)-1H-pyrazol-4-yl]-7-[rac-(3R)-3-(methoxymethyl)-4-methyl-piperazin-1-yl]-1,5-naphthyridine] are 25.1 to 158 nM and 0.398 to 3.16 nM. As for `CNC(=O)C1CN(c2cnc3ccc(-c4c[nH]nc4-c4cc(Cl)ccc4F)nc3c2)CCN1C` (racemic) [Compound 1-81, rac-(2S)-4-[6-[3-(5-chloro-2-fluoro-phenyl)-1H-pyrazol-4-yl]-1,5-naphthyridin-3-yl]-N,1-dimethyl-piperazine-2-carboxamide], the Ki in test [2] was 0.398 to 3.16 nM.

As to `CC(C)N1CCCN(c2cnc3ccc(-c4c[nH]nc4-c4cc(Cl)ccc4F)nc3c2)CC1C` (racemic) [Compound 1-82, 2-[3-(5-chloro-2-fluoro-phenyl)-1H-pyrazol-4-yl]-7-[rac-(3S)-4-isopropyl-3-methyl-1,4-diazepan-1-yl]-1,5-naphthyridine], the IC50 in test [1] is 25.1 to 158 nM. Besides, the Ki in test [2] is 0.398 to 3.16 nM.

Consider `CN(C)C1CCN(c2cnc3ccc(-c4nc[nH]c4-c4cc(Cl)ccc4F)nc3c2)C1` (racemic) [Compound 2-11, rac-(3S)-1-(6-[5-(5-chloro-2-fluoro-phenyl)-1H-imidazol-4-yl]-1,5-naphthyridin-3-yl]-N,N-dimethyl-pyrrolidin-3-amine], for which the IC50 in test [1] was at most 20 nM. Moreover, the Ki in test [2] is 0.0398 to 0.316 nM. `CN(C)C1CCN(c2cnc3ccc(-c4c(-c5cc(Cl)ccc5F)nc5ccccn45)nc3c2)C1` (racemic) [Compound 3-4, rac-(3S)-1-[6-[2-(5-chloro-2-fluoro-phenyl)imidazo[1,2-a]pyridin-3-yl]-1,5-naphthyridin-3-yl]-N,N-dimethyl-pyrrolidin-3-amine]: the IC50 in test [1] is 200 to 1260 nM. In addition, in test [2], the Ki is 0.0398 to 0.316 nM.

Turning to `Fc1cc(F)c(-c2n[nH]cc2-c2ccc3ncc(N4CCC(N5CCCCC5)C4)cc3n2)cc1Cl` (racemic) [Compound 6-21, 2-[3-(5-chloro-2,4-difluoro-phenyl)-1H-pyrazol-4-yl]-7-[rac-(3R)-3-(1-piperidyl)pyrrolidin-1-yl]-1,5-naphthyridine], in test [1], the IC50 was 25.1 to 158 nM. Moreover, in test [2], the Ki is 0.0398 to 0.316 nM.

Source of the values: US11730720B2, “ALK5 inhibitors” (THERAVANCE BIOPHARMA R&D IP, LLC, priority 2018, dated 2023).
